Test results: US11254663B2 (BRISTOL-MYERS SQUIBB COMPANY, priority 2019, dated 2022)
pEC50: −log10 of the molar value.

target: FXR (Homo sapiens (Human), UniProt Q96RI1); test: transient human FXR/Gal4-luciferase reporter assay; type: cell-based; details: Gal4-hFXR fusion construct, HEK293 reporter cells; response relative to 8 μM GW-4064
Outline: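 Compound exposure ran overnight at 37 °C and activity was measured as luminescence with Steady-Glo reagent. The cells were a HEK293 line stably expressing firefly luciferase under five Gal4 response elements. They were transiently transfected, one night beforehand, with a plasmid encoding Gal4 DNA-binding domain fused to the human FXR ligand-binding domain.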

FXR, sequence (Q96RI1 262-486): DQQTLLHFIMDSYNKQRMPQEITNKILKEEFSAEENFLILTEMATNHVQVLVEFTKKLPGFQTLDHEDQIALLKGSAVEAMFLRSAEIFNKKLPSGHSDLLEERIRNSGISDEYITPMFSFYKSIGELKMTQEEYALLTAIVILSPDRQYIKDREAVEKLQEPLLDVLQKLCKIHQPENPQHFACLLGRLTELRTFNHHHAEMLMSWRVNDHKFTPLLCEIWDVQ

Going from COc1ccc(-c2cccc(N(CC34CCC(c5nc(C6CC6)no5)(CC3)CC4)C(=O)C34CC(F)(C3)C4)c2)cc1 [Example 282, N-((4-(3-cyclopropyl-1,2,4-oxadiazol-5-yl)bicyclo[2.2.2]octan-1-yl)methyl)-3-fluoro-N-(4′-methoxy-[1,1′-biphenyl]-3-yl)bicyclo[1.1.1]pentane-1-carboxamide] to CCOc1ccc(-c2cccc(N(CC34CCC(c5nc(C6CC6)no5)(CC3)CC4)C(=O)C34CC(F)(C3)C4)c2)cc1 [Example 290, N-((4-(3-cyclopropyl-1,2,4-oxadiazol-5-yl)bicyclo[2.2.2]octan-1-yl)methyl)-N-(4′-ethoxy-[1,1′-biphenyl]-3-yl)-3-fluorobicyclo[1.1.1]pentane-1-carboxamide], the pEC50 falls from 7.72 to 7.22 (0.50 log units).

Compared with CCOc1ccc(-c2cccc(N(CC34CCC(c5nc(C6CC6)no5)(CC3)CC4)C(=O)C34CC(F)(C3)C4)c2)nn1 [Example 283, N-((4-(3-cyclopropyl-1,2,4-oxadiazol-5-yl)bicyclo[2.2.2]octan-1-yl)methyl)-N-(3-(6-ethoxypyridazin-3-yl)phenyl)-3-fluorobicyclo[1.1.1]pentane-1-carboxamide], Cc1ccc(-c2cccc(N(CC34CCC(c5nc(C6CC6)no5)(CC3)CC4)C(=O)C34CC(F)(C3)C4)c2)nn1 [Example 295, N-((4-(3-cyclopropyl-1,2,4-oxadiazol-5-yl)bicyclo[2.2.2]octan-1-yl)methyl)-3-fluoro-N-(3-(6-methylpyridazin-3-yl)phenyl)bicyclo[1.1.1]pentane-1-carboxamide] is 0.55 log units lower in pEC50: 6.63 for the first, 6.08 for the second.

O=C(N(CC12CCC(c3nc(C4CC4)no3)(CC1)CC2)c1cccc(-c2ccc3c(c2)OC(F)(F)O3)c1)C12CC(F)(C1)C2 [Example 284, N-((4-(3-cyclopropyl-1,2,4-oxadiazol-5-yl)bicyclo[2.2.2]octan-1-yl)methyl)-N-(3-(2,2-difluorobenzo[d][1,3]dioxol-5-yl)phenyl)-3-fluorobicyclo[1.1.1]pentane-1-carboxamide] and O=C(N(CC12CCC(c3nc(C4CC4)no3)(CC1)CC2)c1cccc(-c2ccc(Cl)c(Cl)c2)c1)C12CC(F)(C1)C2 [Example 286, N-((4-(3-cyclopropyl-1,2,4-oxadiazol-5-yl)bicyclo[2.2.2]octan-1-yl)methyl)-N-(3′,4′-dichloro-[1,1′-biphenyl]-3-yl)-3-fluorobicyclo[1.1.1]pentane-1-carboxamide] are within 0.2 log units of each other in pEC50: 6.63 for the first, 6.44 for the second.

First: CCc1ccc(-c2cccc(N(CC34CCC(c5nc(C6CC6)no5)(CC3)CC4)C(=O)C34CC(F)(C3)C4)c2)cc1 [Example 285, N-((4-(3-cyclopropyl-1,2,4-oxadiazol-5-yl)bicyclo[2.2.2]octan-1-yl)methyl)-N-(4′-ethyl-[1,1′-biphenyl]-3-yl)-3-fluorobicyclo[1.1.1]pentane-1-carboxamide]
Second: N#Cc1ccc(-c2cccc(N(CC34CCC(c5nc(C6CC6)no5)(CC3)CC4)C(=O)C34CC(F)(C3)C4)c2)cc1 [Example 302, N-(4′-cyano-[1,1′-biphenyl]-3-yl)-N-((4-(3-cyclopropyl-1,2,4-oxadiazol-5-yl)bicyclo[2.2.2]octan-1-yl)methyl)-3-fluorobicyclo[1.1.1]pentane-1-carboxamide]
The pEC50 of the first is 0.59 log units higher: 6.65 for the first, 6.06 for the second.

First: O=C(N(CC12CCC(c3nc(C4CC4)no3)(CC1)CC2)c1cccc(-c2ccc(F)cn2)c1)C12CC(F)(C1)C2 [Example 287, N-((4-(3-cyclopropyl-1,2,4-oxadiazol-5-yl)bicyclo[2.2.2]octan-1-yl)methyl)-3-fluoro-N-(3-(5-fluoropyridin-2-yl)phenyl)bicyclo[1.1.1]pentane-1-carboxamide]
Second: N#Cc1ccc(-c2cccc(N(CC34CCC(c5nc(C6CC6)no5)(CC3)CC4)C(=O)C34CC(F)(C3)C4)c2)nc1 [Example 297, N-(3-(5-cyanopyridin-2-yl)phenyl)-N-((4-(3-cyclopropyl-1,2,4-oxadiazol-5-yl)bicyclo[2.2.2]octan-1-yl)methyl)-3-fluorobicyclo[1.1.1]pentane-1-carboxamide]
The pEC50 of the first is 0.60 log units higher: 6.50 for the first, 5.90 for the second. The first is the more potent here.

Compared with O=C(N(CC12CCC(c3nc(C4CC4)no3)(CC1)CC2)c1cccc(-c2ccn3ccnc3c2)c1)C12CC(F)(C1)C2 [Example 288, N-((4-(3-cyclopropyl-1,2,4-oxadiazol-5-yl)bicyclo[2.2.2]octan-1-yl)methyl)-3-fluoro-N-(3-(imidazo[1,2-a]pyridin-7-yl)phenyl)bicyclo[1.1.1]pentane-1-carboxamide], O=C(N(CC12CCC(c3nc(C4CC4)no3)(CC1)CC2)c1cccc(-c2ccn3ncnc3c2)c1)C12CC(F)(C1)C2 [Example 298, N-(3-([1,2,4]triazolo[1,5-a]pyridin-7-yl)phenyl)-N-((4-(3-cyclopropyl-1,2,4-oxadiazol-5-yl)bicyclo[2.2.2]octan-1-yl)methyl)-3-fluorobicyclo[1.1.1]pentane-1-carboxamide] is 0.50 log units lower in pEC50: 6.27 for the first, 5.77 for the second. The first is the more potent here.

Compared with CCOc1ncc(-c2cccc(N(CC34CCC(c5nc(C6CC6)no5)(CC3)CC4)C(=O)C34CC(F)(C3)C4)c2)cn1 [Example 289, N-((4-(3-cyclopropyl-1,2,4-oxadiazol-5-yl)bicyclo[2.2.2]octan-1-yl)methyl)-N-(3-(2-ethoxypyrimidin-5-yl)phenyl)-3-fluorobicyclo[1.1.1]pentane-1-carboxamide], Cc1ccnc(-c2cccc(N(CC34CCC(c5nc(C6CC6)no5)(CC3)CC4)C(=O)C34CC(F)(C3)C4)c2)n1 [Example 300, N-((4-(3-cyclopropyl-1,2,4-oxadiazol-5-yl)bicyclo[2.2.2]octan-1-yl)methyl)-3-fluoro-N-(3-(4-methylpyrimidin-2-yl)phenyl)bicyclo[1.1.1]pentane-1-carboxamide] is 0.94 log units lower in pEC50: 7.32 for the first, 6.38 for the second. The first is the more potent here.

O=C(N(CC12CCC(c3nc(C4CC4)no3)(CC1)CC2)c1cccc(-c2nccc(C(F)(F)F)n2)c1)C12CC(F)(C1)C2 [Example 291, N-((4-(3-cyclopropyl-1,2,4-oxadiazol-5-yl)bicyclo[2.2.2]octan-1-yl)methyl)-3-fluoro-N-(3-(4-(trifluoromethyl)pyrimidin-2-yl)phenyl)bicyclo[1.1.1]pentane-1-carboxamide] and O=C(N(CC12CCC(c3nc(C4CC4)no3)(CC1)CC2)c1cccc(-c2nc(C(F)(F)F)ccc2F)c1)C12CC(F)(C1)C2 [Example 293, N-((4-(3-cyclopropyl-1,2,4-oxadiazol-5-yl)bicyclo[2.2.2]octan-1-yl)methyl)-3-fluoro-N-(3-(3-fluoro-6-(trifluoromethyl)pyridin-2-yl)phenyl)bicyclo[1.1.1]pentane-1-carboxamide] are within 0.2 log units of each other in pEC50: 6.36 for the first, 6.17 for the second.

First: N#Cc1cccc(-c2cccc(N(CC34CCC(c5nc(C6CC6)no5)(CC3)CC4)C(=O)C34CC(F)(C3)C4)c2)n1 [Example 292, N-(3-(6-cyanopyridin-2-yl)phenyl)-N-((4-(3-cyclopropyl-1,2,4-oxadiazol-5-yl)bicyclo[2.2.2]octan-1-yl)methyl)-3-fluorobicyclo[1.1.1]pentane-1-carboxamide]
Second: N#Cc1cc(-c2cccc(N(CC34CCC(c5nc(C6CC6)no5)(CC3)CC4)C(=O)C34CC(F)(C3)C4)c2)ccc1F [Example 294, N-(3′-cyano-4′-fluoro-[1,1′-biphenyl]-3-yl)-N-((4-(3-cyclopropyl-1,2,4-oxadiazol-5-yl)bicyclo[2.2.2]octan-1-yl)methyl)-3-fluorobicyclo[1.1.1]pentane-1-carboxamide]
The pEC50 of the first is 0.59 log units higher: 6.83 for the first, 6.24 for the second.

First: COc1ccc(-c2cccc(N(CC34CCC(c5nc(C6CC6)no5)(CC3)CC4)C(=O)C34CC(F)(C3)C4)c2)cc1C#N [Example 296, N-(3′-cyano-4′-methoxy-[1,1′-biphenyl]-3-yl)-N-((4-(3-cyclopropyl-1,2,4-oxadiazol-5-yl)bicyclo[2.2.2]octan-1-yl)methyl)-3-fluorobicyclo[1.1.1]pentane-1-carboxamide]
Second: COc1ccc(-c2cccc(N(CC34CCC(c5nc(C6CC6)no5)(CC3)CC4)C(=O)C34CC(F)(C3)C4)c2)cc1OC [Example 301, N-((4-(3-cyclopropyl-1,2,4-oxadiazol-5-yl)bicyclo[2.2.2]octan-1-yl)methyl)-N-(3′,4′-dimethoxy-[1,1′-biphenyl]-3-yl)-3-fluorobicyclo[1.1.1]pentane-1-carboxamide]
The pEC50 of the first is 0.25 log units higher: 6.53 for the first, 6.28 for the second.

Going from O=C(N(CC12CCC(c3nc(C4CC4)no3)(CC1)CC2)c1cccc(-c2cccc(OC(F)(F)C(F)F)c2)c1)C12CC(F)(C1)C2 [Example 299, N-((4-(3-cyclopropyl-1,2,4-oxadiazol-5-yl)bicyclo[2.2.2]octan-1-yl)methyl)-3-fluoro-N-(3′-(1,1,2,2-tetrafluoroethoxy)-[1,1′-biphenyl]-3-yl)bicyclo[1.1.1]pentane-1-carboxamide] to Cn1ncc2cc(-c3cccc(N(CC45CCC(c6nc(C7CC7)no6)(CC4)CC5)C(=O)C45CC(F)(C4)C5)c3)ccc21 [Example 304, N-((4-(3-cyclopropyl-1,2,4-oxadiazol-5-yl)bicyclo[2.2.2]octan-1-yl)methyl)-3-fluoro-N-(3-(1-methyl-1H-indazol-5-yl)phenyl)bicyclo[1.1.1]pentane-1-carboxamide], the pEC50 rises from 6.18 to 6.61 (0.43 log units). The second is the more potent here.

Cc1nc2cc(-c3cccc(N(CC45CCC(c6nc(C7CC7)no6)(CC4)CC5)C(=O)C45CC(F)(C4)C5)c3)ccc2s1 [Example 303, N-((4-(3-cyclopropyl-1,2,4-oxadiazol-5-yl)bicyclo[2.2.2]octan-1-yl)methyl)-3-fluoro-N-(3-(2-methylbenzo[d]thiazol-5-yl)phenyl)bicyclo[1.1.1]pentane-1-carboxamide] and Cc1nc2cc(-c3cccc(N(CC45CCC(c6nc(C7CC7)no6)(CC4)CC5)C(=O)C45CC(F)(C4)C5)c3)ccc2o1 [Example 305, N-((4-(3-cyclopropyl-1,2,4-oxadiazol-5-yl)bicyclo[2.2.2]octan-1-yl)methyl)-3-fluoro-N-(3-(2-methylbenzo[d]oxazol-5-yl)phenyl)bicyclo[1.1.1]pentane-1-carboxamide] are within 0.2 log units of each other in pEC50: 6.46 for the first, 6.52 for the second.
